Data from PMC8269394, “Characterization of an Atypical Trypanosoma brucei Hsp70 Demonstrates Its Cytosolic-Nuclear Localization and Modulation by Quercetin and Methylene Blue” (International Journal of Molecular Sciences, 2021).

How the values were obtained:
Assay in all cases: ATPase assay, colorimetric phosphate release
Format in all cases: biochemical
[1] = target: T1, TbHsp70.c-Tbj2 (Trypanosoma brucei, UniProt Q383E9); conditions: 30 µM methylene blue; 1 µM each protein; 600 µM ATP; 37 °C; activator
T1 construct: gene Tb11.01.3080; recombinant purified TbHsp70.c with recombinant co-chaperone Tbj2 at equal concentration; with Chaperone protein DnaJ, putative (type I J-protein Tbj2)
T1 sequence (Q383E9 1-676): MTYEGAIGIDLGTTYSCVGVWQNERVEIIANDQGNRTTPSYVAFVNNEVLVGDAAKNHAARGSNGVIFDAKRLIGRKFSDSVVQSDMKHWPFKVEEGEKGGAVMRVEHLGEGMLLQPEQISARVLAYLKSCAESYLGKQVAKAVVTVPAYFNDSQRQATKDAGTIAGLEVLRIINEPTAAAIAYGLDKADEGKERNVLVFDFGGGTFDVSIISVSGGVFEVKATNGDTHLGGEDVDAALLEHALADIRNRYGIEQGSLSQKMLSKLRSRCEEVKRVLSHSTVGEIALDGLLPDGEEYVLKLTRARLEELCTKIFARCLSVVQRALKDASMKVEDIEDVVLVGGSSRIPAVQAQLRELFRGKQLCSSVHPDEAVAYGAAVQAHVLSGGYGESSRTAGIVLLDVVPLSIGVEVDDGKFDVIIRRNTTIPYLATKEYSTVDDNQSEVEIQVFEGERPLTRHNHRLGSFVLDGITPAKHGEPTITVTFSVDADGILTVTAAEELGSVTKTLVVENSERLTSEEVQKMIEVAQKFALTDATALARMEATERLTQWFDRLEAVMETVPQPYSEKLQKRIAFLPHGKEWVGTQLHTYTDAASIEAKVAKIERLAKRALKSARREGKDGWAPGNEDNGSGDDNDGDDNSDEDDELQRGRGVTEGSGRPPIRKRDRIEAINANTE
T1 sequence (Q585V4 1-404 partner): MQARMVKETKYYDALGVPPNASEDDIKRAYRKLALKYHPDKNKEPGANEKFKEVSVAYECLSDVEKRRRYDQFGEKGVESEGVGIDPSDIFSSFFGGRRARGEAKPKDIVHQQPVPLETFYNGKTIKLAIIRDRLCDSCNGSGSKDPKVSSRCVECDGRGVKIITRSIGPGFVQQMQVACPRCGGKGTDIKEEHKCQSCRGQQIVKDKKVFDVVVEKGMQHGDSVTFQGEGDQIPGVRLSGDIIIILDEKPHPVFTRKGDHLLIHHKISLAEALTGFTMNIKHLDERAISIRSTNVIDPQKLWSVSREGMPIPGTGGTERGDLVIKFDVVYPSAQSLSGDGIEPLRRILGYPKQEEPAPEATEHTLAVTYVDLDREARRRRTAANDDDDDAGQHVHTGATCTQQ
Source text: ATPase assay, colorimetric phosphate release on TbHsp70.c-Tbj2 | in the presence of Tbj2, methylene blue enhanced the ATPase activity of TbHsp70.c

[2] = target: T2, TbHsp70.c (Trypanosoma brucei, UniProt Q383E9); conditions: 600 µM ATP; 37 °C; no Tbj2
T2 construct: gene Tb11.01.3080
T2 sequence (Q383E9 1-676): as the sequence (Q383E9 1-676) above

[3] = target: T3, TcHsp70B (Trypanosoma cruzi, UniProt P05456); conditions: 600 µM ATP; 37 °C; no Tbj2
T3 construct: gene HSP70
T3 sequence (P05456 whole entry): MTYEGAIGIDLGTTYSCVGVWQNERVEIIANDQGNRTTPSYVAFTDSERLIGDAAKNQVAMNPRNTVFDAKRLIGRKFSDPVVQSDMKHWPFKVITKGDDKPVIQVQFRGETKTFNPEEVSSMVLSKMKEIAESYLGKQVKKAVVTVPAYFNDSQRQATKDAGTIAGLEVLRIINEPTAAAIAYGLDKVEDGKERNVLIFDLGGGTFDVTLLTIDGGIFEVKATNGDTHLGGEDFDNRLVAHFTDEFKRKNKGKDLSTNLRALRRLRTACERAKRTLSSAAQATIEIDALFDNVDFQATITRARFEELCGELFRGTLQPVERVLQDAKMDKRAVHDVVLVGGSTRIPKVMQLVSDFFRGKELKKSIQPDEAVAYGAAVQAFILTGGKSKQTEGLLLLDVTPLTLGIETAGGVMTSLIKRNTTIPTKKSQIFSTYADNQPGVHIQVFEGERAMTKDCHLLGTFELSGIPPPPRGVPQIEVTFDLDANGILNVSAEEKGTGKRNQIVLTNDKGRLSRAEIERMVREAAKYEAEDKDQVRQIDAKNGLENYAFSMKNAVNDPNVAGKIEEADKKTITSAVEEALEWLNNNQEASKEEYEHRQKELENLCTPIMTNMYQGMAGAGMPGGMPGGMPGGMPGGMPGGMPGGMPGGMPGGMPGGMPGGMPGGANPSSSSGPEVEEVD

[4] = target: T2, TbHsp70.c; conditions: 30 µM quercetin; 0.4 µM protein; 600 µM ATP; 37 °C; no Tbj2
[5] = target: T3, TcHsp70B; conditions: 30 µM quercetin; 0.4 µM protein; 600 µM ATP; 37 °C; no Tbj2
[6] = target: T4, TcHsp70B-Tbj2 (Trypanosoma cruzi, UniProt P05456); conditions: 30 µM quercetin; 0.4 µM each protein; 600 µM ATP; 37 °C
T4 construct: gene HSP70; mixed species: recombinant T. cruzi TcHsp70B with recombinant T. brucei co-chaperone Tbj2; with Chaperone protein DnaJ, putative (type I J-protein Tbj2, Trypanosoma brucei)
T4 sequence (P05456 whole entry): as above
T4 sequence (Q585V4 1-404 partner): as the sequence (Q585V4 1-404 partner) above

[7] = target: T1, TbHsp70.c-Tbj2; conditions: 30 µM quercetin; 0.4 µM each protein; 600 µM ATP; 37 °C

CN(C)c1ccc2nc3ccc(=[N+](C)C)cc-3sc2c1 [methylene blue]
fold increase in Tbj2-stimulated ATPase at 30 μM [1]: 1.5 fold

Nc1ncnc2c1ncn2[C@@H]1O[C@H](COP(=O)(O)OP(=O)(O)OP(=O)(O)O)[C@@H](O)[C@H]1O [ATP]
ATPase assay, colorimetric phosphate release [2]: Inorganic phosphate released by ATP in the presence of each Hsp70 was monitored
ATPase assay, colorimetric phosphate release [3]: Inorganic phosphate released by ATP in the presence of each Hsp70 was monitored

O=c1c(O)c(-c2ccc(O)c(O)c2)oc2cc(O)cc(O)c12 [quercetin, 3,3′,4′,5,7-Pentahydroxyflavone]
basal ATPase inhibition at 30 μM [4]: Our findings suggest that quercetin inhibits the basal ATPase activity of TbHsp70.c
fold inhibition of basal ATPase at 30 μM [5]: 1.3 fold
fold inhibition of Tbj2-stimulated ATPase at 30 μM [6]: 1.4 fold
fold inhibition of Tbj2-stimulated ATPase at 30 μM [7]: 9.3 fold
